Assay [1] relates to T. hyodysenteriae. The assay is described as follows: MIC of M139603 against thirteen T. hyodysenteriae isolates vs salinomycin and dimetridazole (Example 1, Table 1). In kind it is cell-based, Treponema hyodysenteriae. The conditions noted are these: Brachyspira hyodysenteriae. How it is done: The minimum inhibitory concentration of M139603 was tested in parallel with dimetridazole (May & Baker) and the growth-promoting polyether antibiotic salinomycin (Hoechst) against thirteen strains of T. hyodysenteriae.

Assay [2] concerns T. hyodysenteriae. The assay is described as follows: Comparative efficacy of M139603 and lasalocid in experimentally infected mice (Example 4, Table 4). In kind it is in vivo, mice (strain MF-1). The conditions noted are these: for Mean (log10) viable treponemes per gram caecal contents / Viable treponemes per gram caecal contents: 5 days; for Mean (log10) viable treponemes per gram caecal contents: group mean (table); for Viable treponemes per gram caecal contents: individual mice. The text has this: (§1) The infection leads to varying degrees of caecitis, the lesions of which are apparent in animals killed on or about the sixth day post-infection. Caecal specimens examined by bacteriological culture techniques applicable for enumeration of organisms reveal the presence of high populations of T.hyodysenteriae. This disease-model was used in experiments to compare the efficacy of M139603 with that of salinomycin, lasalocid and monensin in suppressing the infection.
(§2) In this study, the efficacy of M139603 was tested at 25 ppm feed and that of monensin (Eli Lilly) at 50 or 100 ppm. Groups of infected mice, five per group, were offered the drugs in the feed on five continuous days before killing. Caecal materials were subjected to bacteriological examination to enumerate the populations of viable treponemes per gram of material. […] The group mean in respect of the unmedicated groups was 7.9 cfu/g.
In this study, the efficacy of M139603 was tested at 20 ppm feed and that of lasalocid (Hoffman la Roche) at 20, 40 and 80 ppm. The test procedures were similar to those above except for the size of the inoculum of T.hyodysenteriae (1.2×10^7 cfu) used in infecting each mouse. […] The mean (log10) counts of viable treponemes found in the caecal contents of the various groups were: 2.5 cfu/g caecum (139603 at 20 ppm), 7.35 cfu (lasalocid at 20 ppm), 7.45 cfu (lasalocid at 40 ppm), 3.81 cfu (lasalocid at 80 ppm) and 8.50 cfu (unmedicated control).

Assay [3] relates to T. hyodysenteriae. Description: Comparative efficacy of M139603 and monensin in experimentally infected mice (Example 2, Table 2). In kind it is in vivo, mice (strain MF-1). The conditions noted are these: for Mean (log10) viable treponemes per gram caecum & contents / Viable treponemes per gram caecum & contents: 5 days; for Mean (log10) viable treponemes per gram caecum & contents: group mean; for Viable treponemes per gram caecum & contents: individual mice.
Description: as §1, §2

Assay [4] concerns T. hyodysenteriae. Description: Comparative efficacy of M139603 and salinomycin in experimentally infected mice (Example 3, Table 3). The format is in vivo, mice (strain MF-1). The conditions noted are these: for Mean (log10) viable treponemes per gram caecum & contents / Viable treponemes per gram caecum & contents: 5 days; for Mean (log10) viable treponemes per gram caecum & contents: group mean; for Viable treponemes per gram caecum & contents: individual mice.
Description: as §1, §2
In this study, the efficacy of M139603 was tested at 30 ppm and that of salinomycin at 30, 40 or 60 ppm feed. The mouse-groups and test-procedureswere simi-ar to those applied under Example 2 above.

Where “and” joins values, the source holds several entries; their conditions need not be identical. Equal values may be shown once. Read-outs that look alike come from different tables or passages of the source.

The values below come from patent US4999374A, “Veterinary treatment” (priority 1987, dated 1991).

A word on the MIC: it is the least concentration at which growth counts as inhibited. As to `Cc1ncc([N+](=O)[O-])n1C` [Dimetridazole, dimetridazole], the MIC in the assay on T. hyodysenteriae [1] (isolate B78, read-out: MIC) amounted to 3 µg/mL; with T. hyodysenteriae [1] (isolate S82/6, read-out: MIC), 30 µg/mL; with T. hyodysenteriae [1] (isolate S82/7, read-out: MIC), 30 µg/mL; with T. hyodysenteriae [1] (isolate S83/1, read-out: MIC) it was 30 µg/mL; in the assay on T. hyodysenteriae [1] (isolate S83/2, read-out: MIC) it was 3 µg/mL; in the assay with T. hyodysenteriae [1] (isolate S83/5, read-out: MIC), 3 µg/mL. The minimum inhibitory concentration (MIC) was 30 µg/mL with T. hyodysenteriae [1] (isolate S85/1, read-out: MIC); 10 µg/mL in the assay on T. hyodysenteriae [1] (isolate S85/2, read-out: MIC); 10 µg/mL with T. hyodysenteriae [1] (isolate S85/3, read-out: MIC); 3 µg/mL in the assay on T. hyodysenteriae [1] (isolate S85/8, read-out: MIC); 5 µg/mL with T. hyodysenteriae [1] (isolate S85/9, read-out: MIC); below 0.5 µg/mL with T. hyodysenteriae [1] (isolate S86/1, read-out: MIC). Moreover, the MIC in the assay with T. hyodysenteriae [1] (isolate S86/2, read-out: MIC) is 10 µg/mL; with T. hyodysenteriae [1] (mean of 13 strains (table), read-out: Mean MIC) it was 12.9 µg/mL.

For the compound `CC[C@@H](C(=O)[C@@H](C)[C@@H](O)[C@H](C)CCc1ccc(C)c(O)c1C(=O)O)[C@H]1O[C@](CC)([C@H]2CC[C@](O)(CC)[C@H](C)O2)C[C@@H]1C` [Lasalocid, lasalocid], in the assay with T. hyodysenteriae [2] (20 ppm feed), the “Mean (log10) viable treponemes per gram caecal contents” value is given as 7.35 log10 per gram; the “Viable treponemes per gram caecal contents” value was 3.2 × 10^8 per gram and 1.1 × 10^4 per gram and 2.9 × 10^7 per gram and 1.7 × 10^8 per gram; the “Mean (log10) count of viable treponemes in caecal contents” value (shortened to “Mean (log10) count of viable treponemes”) is on record as 7.35 cfu/g caecum. Moreover, in the assay with T. hyodysenteriae [2] (40 ppm feed), the “Mean (log10) viable treponemes per gram caecal contents” value is 7.45 log10 per gram; the “Viable treponemes per gram caecal contents” value was 3.0 × 10^ 6 per gram and 1.4 × 10^8 per gram and 2.1 × 10^8 per gram and 1.7 × 10^7 per gram and 1.2 × 10^7 per gram; the “Mean (log10) count of viable treponemes” value came out at 7.45 cfu/g caecum. Further, in the assay on T. hyodysenteriae [2] (80 ppm feed), the “Mean (log10) viable treponemes per gram caecal contents” value is 3.81 log10 per gram; the “Viable treponemes per gram caecal contents” value is 4.0 × 10^4 per gram and 0 per gram and 1.0 × 10^6 per gram and 1.3 × 10^5 per gram and 2.3 × 10^3 per gram; the “Mean (log10) count of viable treponemes” value came out at 3.81 cfu/g caecum.

Consider `CC[C@@]1([C@@H]2O[C@@H]([C@H]3O[C@@](O)(CO)[C@H](C)C[C@@H]3C)C[C@@H]2C)CC[C@H]([C@]2(C)CC[C@]3(C[C@H](O)[C@@H](C)[C@@H]([C@@H](C)[C@@H](OC)[C@H](C)C(=O)O)O3)O2)O1` [Monensin, monensin], for which, in the assay on T. hyodysenteriae [3] (50 ppm feed), the “Animals yielding high populations of viable treponema” value is listed as “four out of five”; the Suppression of infection result is given as “ineffective”; the “Mean (log10) viable treponemes per gram caecum & contents” value amounted to 5.2 log10 per gram; the “Viable treponemes per gram caecum & contents” value is 1.74 × 10^8 per gram and 2.90 × 10^7 per gram and 1.0 × 10^5 per gram and negative and 2.0 × 10^5 per gram. The “Populations of viable treponema (range)” value in the assay on T. hyodysenteriae [3] (50 ppm feed, four of five animals) is listed as 1.0×10^5 -1.7×10^8 cfu/g. Besides, in the assay with T. hyodysenteriae [3] (50 ppm feed, log10), the “Group mean (log10) viable treponema” value turned out to be 5.2 cfu/g caecum. Besides, in the assay on T. hyodysenteriae [3] (100 ppm feed), the Suppression of infection entry is on record as “suppressed the infection” and the “Mean (log10) viable treponemes per gram caecum & contents” value came to 0 log10 per gram. In the assay with T. hyodysenteriae [3] (100 ppm feed, limit of detection <1.0 × 10^2), the “Viable treponemes per gram caecum & contents” value is given as “negative”.

Regarding `CC[C@@H](C(=O)[C@@H](C)[C@@H](O)[C@H](C)[C@@H]1O[C@@H]([C@@H](CC)C(=O)O)CC[C@@H]1C)[C@H]1O[C@]2(C=C[C@@H](O)[C@]3(CC[C@@](C)([C@H]4CC[C@](O)(CC)[C@H](C)O4)O3)O2)[C@H](C)C[C@@H]1C` [Salinomycin, salinomycin], the MIC is 1 µg/mL in the assay with T. hyodysenteriae [1] (isolate B78); 0.75 µg/mL in the assay on T. hyodysenteriae [1] (isolate S82/6); 0.75 µg/mL in the assay on T. hyodysenteriae [1] (isolate S82/7); 0.75 µg/mL in the assay on T. hyodysenteriae [1] (isolate S83/1); 1 µg/mL in the assay with T. hyodysenteriae [1] (isolate S83/2); below 0.1 µg/mL in the assay with T. hyodysenteriae [1] (isolate S83/5). In addition, the MIC was 0.75 µg/mL with T. hyodysenteriae [1] (isolate S85/1); 1 µg/mL in the assay with T. hyodysenteriae [1] (isolate S85/2); 0.75 µg/mL in the assay on T. hyodysenteriae [1] (isolate S85/3); 0.75 µg/mL in the assay on T. hyodysenteriae [1] (isolate S85/8); 0.5 µg/mL with T. hyodysenteriae [1] (isolate S85/9); below 0.1 µg/mL in the assay on T. hyodysenteriae [1] (isolate S86/1). Further, the MIC is 0.75 µg/mL in the assay on T. hyodysenteriae [1] (isolate S86/2) and 0.68 µg/mL with T. hyodysenteriae [1] (read-out: Mean MIC, mean of 13 strains (table)). Besides, the Suppression of infection entry in the assay on T. hyodysenteriae [4] (30, 40 or 60 ppm feed) was “failed to do so, even at 60 ppm”. For the same compound, the “Mean (log10) viable treponemes per gram caecum & contents” value in the assay with T. hyodysenteriae [4] (30 ppm feed) is reported as 3.86 log10 per gram; in the assay on T. hyodysenteriae [4] (40 ppm feed), 6.03 log10 per gram; in the assay with T. hyodysenteriae [4] (60 ppm feed) it was 5.52 log10 per gram. The “Viable treponemes per gram caecum & contents” value in the assay with T. hyodysenteriae [4] (30 ppm feed) is “negative and 6.0 × 10^6 per gram and 5.4 × 10^5 per gram”; with T. hyodysenteriae [4] (40 ppm feed), 6.0 × 10^6 per gram and 1.8 × 10^6 per gram and 1.6 × 10^5 per gram and 4.3 × 10^5 per gram; with T. hyodysenteriae [4] (60 ppm feed) it was 1.3 × 10^7 per gram and 2.0 × 10^4 per gram and 1.0 × 10^6 per gram and 1.0 × 10^4 per gram and 1.5 × 10^6 per gram.
